Source: patent US10428104B2, “Substituted nucleoside derivatives useful as anticancer agents” (Pfizer Inc., priority 2015, dated 2019)

Key:
[1] = molecular target: PRMT5/MEP50 protein complex (Homo sapiens (Human), UniProt O14744); experiment: PRMT5 biochemical assay (3H-SAM methylation of H4(1-21) peptide, filter plate scintillation counting); conditions: PRMT5 enzyme inhibition; 10 nM PRMT5/MEP50 complex, 200 nM H4(1-21) peptide, 1 uM SAM, 25 minute incubation at room temperature
In short: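 Flag-PRMT5/MEP50 was co-expressed in Sf21 cells and Flag-affinity purified. Reactions used 10 nM complex, 200 nM H4(1-21) peptide and 1 uM 3H-SAM (final) in 50 mM Tris pH 8.5, 50 mM NaCl, 5 mM MgCl2, 1 mM EDTA and 1 mM TCEP, run 25 min at room temperature. Reactions were TCA-stopped, filter-captured and scintillation-counted; IC50 came from a 4-parameter fit.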

[2] = system: A549 lung adenocarcinoma cells; experiment: A549 proliferation assay (Cell Titer Glo, 7 days); assay type: cell-based; conditions: Homo sapiens, 168 h, 7 days with compound, cell viability by Cell Titer Glo (ATP)
Description: A549 lung adenocarcinoma cells (American Type CuIture Collection) were maintained in DMEM growth media (Life Technologies) supplemented with 10% v/v heat inactivated fetal bovine serum (Sigma) and cultured at 37° C., 5% CO2. Exponentially growing A549 cells were plated in 96-well black tissue culture treated plates (Corning) at a density of 2500 cells/ml in a volume of 100 μl culture media and allowed to adhere overnight at 37° C., 5% CO2. The following day, compound plates were prepared by making nine-point 3.3-fold dilutions in DMSO with a top concentration of 10 mM. Compounds were further diluted in culture media and 11 μl was added to the cells (final top assay concentration was 10 μM and DMSO was […]). Cells were incubated with compound at 37° C., 5% CO2 for 7 days with media and compound replacement on day 4. Cell viability was assayed on Day 7 by adding 100 μl Cell Titer Glo (Promega) reagent to the plate to measure the amount of ATP present in the cells. Luminescence was read using the Envision 2104 Multilabel Reader (Perkin Elmer).
Results for the A549 proliferation assay of examples are summarized in Table 2, shown as IC50 values in μM.

Chain of PRMT5/MEP50 protein complex (O14744 other isoform, or with tags, fused parts or gaps): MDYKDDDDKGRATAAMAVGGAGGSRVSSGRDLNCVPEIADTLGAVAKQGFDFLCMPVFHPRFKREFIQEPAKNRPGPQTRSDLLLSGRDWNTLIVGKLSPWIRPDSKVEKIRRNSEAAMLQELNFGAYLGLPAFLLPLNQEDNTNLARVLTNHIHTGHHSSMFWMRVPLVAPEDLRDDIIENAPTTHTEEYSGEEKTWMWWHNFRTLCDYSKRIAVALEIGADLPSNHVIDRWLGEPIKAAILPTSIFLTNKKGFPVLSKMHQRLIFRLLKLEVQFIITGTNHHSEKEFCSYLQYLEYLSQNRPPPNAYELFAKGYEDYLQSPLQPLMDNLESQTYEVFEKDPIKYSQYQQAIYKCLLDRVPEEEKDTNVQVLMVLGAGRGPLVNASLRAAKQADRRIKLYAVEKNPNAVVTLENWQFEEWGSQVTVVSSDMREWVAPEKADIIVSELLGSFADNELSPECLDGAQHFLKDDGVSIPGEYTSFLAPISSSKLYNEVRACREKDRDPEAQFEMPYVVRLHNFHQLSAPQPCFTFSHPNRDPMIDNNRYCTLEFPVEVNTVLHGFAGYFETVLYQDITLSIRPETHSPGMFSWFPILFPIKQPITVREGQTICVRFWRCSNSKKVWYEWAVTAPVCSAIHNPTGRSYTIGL
Chain of PRMT5/MEP50 protein complex (Q9BQA1 whole entry partner): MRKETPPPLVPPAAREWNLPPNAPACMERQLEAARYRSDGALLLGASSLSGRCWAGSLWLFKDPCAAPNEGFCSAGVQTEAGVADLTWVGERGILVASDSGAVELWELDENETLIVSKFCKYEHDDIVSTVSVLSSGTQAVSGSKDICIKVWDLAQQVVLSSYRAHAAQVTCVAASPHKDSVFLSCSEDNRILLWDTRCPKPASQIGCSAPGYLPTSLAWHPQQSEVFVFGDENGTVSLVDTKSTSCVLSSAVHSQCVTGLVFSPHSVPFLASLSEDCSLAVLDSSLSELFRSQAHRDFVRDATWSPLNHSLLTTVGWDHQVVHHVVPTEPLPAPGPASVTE

Row | IC50 [1] [nM] | IC50 [2] [nM] | SMILES
1 | 18 | 211 | Cc1ncnc2c1ccn2[C@@H]1O[C@H]([C@H](O)c2ccccc2)[C@@H](O)[C@H]1O [Example 26, (2R,3S,4R,5R)-2-((R)-hydroxy(phenyl)methyl)-5-(4-methyl-7H-pyrrolo[2,3-d]pyrimidin-7-yl)tetrahydrofuran-3,4-diol]
2 | 5170 | 8700 | Cc1ncnc2c1ccn2[C@@H]1O[C@H]([C@@H](O)c2ccccc2)[C@@H](O)[C@H]1O [Example 27, (2R,3S,4R,5R)-2-((S)-hydroxy(phenyl)methyl)-5-(4-methyl-7H-pyrrolo[2,3-d]pyrimidin-7-yl)tetrahydrofuran-3,4-diol]
3 | 5 | 25 | Cc1ncnc2c1ccn2[C@@H]1O[C@H]([C@H](O)c2cccc(Cl)c2)[C@@H](O)[C@H]1O [Example 32, (2R,3S,4R,5R)-2-((R)-(3-chlorophenyl)(hydroxy)methyl)-5-(4-methyl-7H-pyrrolo[2,3-d]pyrimidin-7-yl)tetrahydrofuran-3,4-diol]
4 | 2640 | 4400 | Cc1ncnc2c1ccn2[C@@H]1O[C@H]([C@@H](O)c2cccc(Cl)c2)[C@@H](O)[C@H]1O [Example 33, (2R,3S,4R,5R)-2-((S)-(3-chlorophenyl)(hydroxy)methyl)-5-(4-methyl-7H-pyrrolo[2,3-d]pyrimidin-7-yl)tetrahydrofuran-3,4-diol]
5 | 6 | 26 | Cc1ncnc2c1ccn2[C@@H]1O[C@H]([C@H](O)c2cccc(F)c2)[C@@H](O)[C@H]1O [Example 34, (2R,3S,4R,5R)-2-((R)-(3-fluorophenyl)(hydroxy)methyl)-5-(4-methyl-7H-pyrrolo[2,3-d]pyrimidin-7-yl)tetrahydrofuran-3,4-diol]
6 | 6 | 44 | Cc1ncnc2c1ccn2[C@@H]1O[C@H]([C@H](O)c2cc(F)cc(F)c2)[C@@H](O)[C@H]1O [Example 36, (2R,3S,4R,5R)-2-((R)-(3,5-difluorophenyl)(hydroxy)methyl)-5-(4-methyl-7H-pyrrolo[2,3-d]pyrimidin-7-yl)tetrahydrofuran-3,4-diol]
7 | 2640 | 3000 | Cc1ncnc2c1ccn2[C@@H]1O[C@H]([C@@H](O)c2cc(F)cc(F)c2)[C@@H](O)[C@H]1O [Example 37, (2R,3S,4R,5R)-2-((S)-(3,5-difluorophenyl)(hydroxy)methyl)-5-(4-methyl-7H-pyrrolo[2,3-d]pyrimidin-7-yl)tetrahydrofuran-3,4-diol]
8 | 5 | 42 | Cc1ncnc2c1ccn2[C@@H]1O[C@H]([C@H](O)c2ccc(F)cc2)[C@@H](O)[C@H]1O [Example 38, (2R,3S,4R,5R)-2-((R)-(4-fluorophenyl)(hydroxy)methyl)-5-(4-methyl-7H-pyrrolo[2,3-d]pyrimidin-7-yl)tetrahydrofuran-3,4-diol]
9 | 1550 | 10500 | Cc1ncnc2c1ccn2[C@@H]1O[C@H]([C@@H](O)c2ccc(F)cc2)[C@@H](O)[C@H]1O [Example 39, (2R,3S,4R,5R)-2-((S)-(4-fluorophenyl)(hydroxy)methyl)-5-(4-methyl-7H-pyrrolo[2,3-d]pyrimidin-7-yl)tetrahydrofuran-3,4-diol]
10 | 114 | 2700 | CC[C@@H](O)[C@H]1O[C@@H](n2ccc3c(C)ncnc32)[C@H](O)[C@@H]1O [Example 40, (2R,3S,4R,5R)-2-((R)-1-hydroxypropyl)-5-(4-methyl-7H-pyrrolo[2,3-d]pyrimidin-7-yl)tetrahydrofuran-3,4-diol]
11 | 52 | 3400 | Cc1ncnc2c1ccn2[C@@H]1O[C@H]([C@@H](C)O)[C@@H](O)[C@H]1O [Example 44, (2R,3S,4R,5R)-2-((R)-1-hydroxyethyl)-5-(4-methyl-7H-pyrrolo[2,3-d]pyrimidin-7-yl)tetrahydrofuran-3,4-diol]
12 | 2 | 10 | Nc1ncnc2c1c(F)cn2[C@@H]1O[C@H]([C@H](O)c2ccc(F)c(F)c2)[C@@H](O)[C@H]1O [Example 60, (2R,3R,4S,5R)-2-(4-amino-5-fluoro-7H-pyrrolo[2,3-d]pyrimidin-7-yl)-5-((R)-(3,4-difluorophenyl)(hydroxy)methyl)tetrahydrofuran-3,4-diol]
13 | 3 | 14 | Nc1ncnc2c1c(F)cn2[C@@H]1O[C@H]([C@H](O)c2ccc(F)cc2)[C@@H](O)[C@H]1O [Example 61, (2R,3R,4S,5R)-2-(4-amino-5-fluoro-7H-pyrrolo[2,3-d]pyrimidin-7-yl)-5-((R)-(4-fluorophenyl)(hydroxy)methyl)tetrahydrofuran-3,4-diol]
14 | 52 | 2300 | CC[C@@H](O)[C@H]1O[C@@H](n2ccc3c(C)nc(N)nc32)[C@H](O)[C@@H]1O [Example 62, (2R,3R,4S,5R)-2-(2-amino-4-methyl-7H-pyrrolo[2,3-d]pyrimidin-7-yl)-5-((R)-1-hydroxypropyl)tetrahydrofuran-3,4-diol]
15 | 38 | 3400 | CCC[C@@H](O)[C@H]1O[C@@H](n2ccc3c(C)nc(N)nc32)[C@H](O)[C@@H]1O [Example 63, (2R,3R,4S,5R)-2-(2-amino-4-methyl-7H-pyrrolo[2,3-d]pyrimidin-7-yl)-5-((R)-1-hydroxybutyl)tetrahydrofuran-3,4-diol]
16 | 5 | 18 | Cc1nc(N)nc2c1ccn2[C@@H]1O[C@H]([C@H](O)c2ccc(F)cc2)[C@@H](O)[C@H]1O [Example 64, (2R,3R,4S,5R)-2-(2-amino-4-methyl-7H-pyrrolo[2,3-d]pyrimidin-7-yl)-5-((R)-(4-fluorophenyl)(hydroxy)methyl)tetrahydrofuran-3,4-diol]
17 | 13 | 323 | Nc1ncnc2c1c(F)cn2[C@@H]1O[C@H]([C@H](O)c2ccc(F)cn2)[C@@H](O)[C@H]1O [Example 83, (2R,3R,4S,5R)-2-(4-amino-5-fluoro-7H-pyrrolo[2,3-d]pyrimidin-7-yl)-5-((R)-(5-fluoropyridin-2-yl)(hydroxy)methyl)tetrahydrofuran-3,4-diol]
18 | 1 | 6 | Nc1ncnc2c1ccn2[C@@H]1O[C@H]([C@H](O)c2ccc(F)c(F)c2)[C@@H](O)[C@H]1O [Example 85, (2R,3R,4S,5R)-2-(4-amino-7H-pyrrolo[2,3-d]pyrimidin-7-yl)-5-((R)-(3,4-difluorophenyl)(hydroxy)methyl)tetrahydrofuran-3,4-diol]
19 | 2 | 9 | Nc1ncnc2c1ccn2[C@@H]1O[C@H]([C@H](O)c2ccc(F)cc2)[C@@H](O)[C@H]1O [Example 86, (2R,3R,4S,5R)-2-(4-amino-7H-pyrrolo[2,3-d]pyrimidin-7-yl)-5-((R)-(4-fluorophenyl)(hydroxy)methyl)tetrahydrofuran-3,4-diol]
20 | 1 | 5 | Nc1ncnc2c1ccn2[C@@H]1O[C@H]([C@H](O)c2ccc(Cl)cc2)[C@@H](O)[C@H]1O [Example 87, (2R,3R,4S,5R)-2-(4-amino-7H-pyrrolo[2,3-d]pyrimidin-7-yl)-5-((R)-(4-chlorophenyl)(hydroxy)methyl)tetrahydrofuran-3,4-diol]
21 | 1 | 3 | Nc1ncnc2c1ccn2[C@@H]1O[C@H]([C@H](O)c2ccc(Cl)c(F)c2)[C@@H](O)[C@H]1O [Example 88, (2R,3R,4S,5R)-2-(4-amino-7H-pyrrolo[2,3-d]pyrimidin-7-yl)-5-((R)-(4-chloro-3-fluorophenyl)(hydroxy)methyl)tetrahydrofuran-3,4-diol]
22 | 14 | 257 | Cc1ncnc2c1ccn2[C@@H]1O[C@H]([C@H](F)c2ccc(F)c(F)c2)[C@@H](O)[C@H]1O [Example 92, (2S,3S,4R,5R)-2-((R)-(3,4-difluorophenyl)fluoromethyl)-5-(4-methyl-7H-pyrrolo[2,3-d]pyrimidin-7-yl)tetrahydrofuran-3,4-diol]
23 | 18 | 250 | Cc1ncnc2c1c(F)cn2[C@@H]1O[C@H]([C@H](O)c2ccc(F)cc2)[C@@H](O)[C@H]1O [Example 98, (2R,3R,4S,5R)-2-(5-fluoro-4-methyl-7H-pyrrolo[2,3-d]pyrimidin-7-yl)-5-((R)-(4-fluorophenyl)(hydroxy)methyl)tetrahydrofuran-3,4-diol]
24 | 21 | 364 | Cc1nc(C)c2ccn([C@@H]3O[C@H]([C@H](O)c4ccc(F)cc4)[C@@H](O)[C@H]3O)c2n1 [Example 99, (2R,3R,4S,5R)-2-(2,4-dimethyl-7H-pyrrolo[2,3-d]pyrimidin-7-yl)-5-((R)-(4-fluorophenyl)(hydroxy)methyl)tetrahydrofuran-3,4-diol]

Row | SMILES | IC50 [1] [nM] | IC50 [2] [nM]
25 | Cc1ncnc2c1ccn2[C@@H]1O[C@H]([C@H](O)c2cccc3c2CNCC3)[C@@H](O)[C@H]1O [Example 112, (2R,3S,4R,5R)-2-((R)-hydroxy(1,2,3,4-tetrahydroisoquinolin-8-yl)methyl)-5-(4-methyl-7H-pyrrolo[2,3-d]pyrimidin-7-yl)tetrahydrofuran-3,4-diol] | 1 | 350
